Measurements from US9630947B2, “Therapeutic compounds and related methods of use” (OTSUKA PHARMACEUTICAL CO., LTD., priority 2009, dated 2017).

Molecular target: T1, purified STEP46 enzyme (Homo sapiens, UniProt P54829)
T1 sequence (P54829 1-565): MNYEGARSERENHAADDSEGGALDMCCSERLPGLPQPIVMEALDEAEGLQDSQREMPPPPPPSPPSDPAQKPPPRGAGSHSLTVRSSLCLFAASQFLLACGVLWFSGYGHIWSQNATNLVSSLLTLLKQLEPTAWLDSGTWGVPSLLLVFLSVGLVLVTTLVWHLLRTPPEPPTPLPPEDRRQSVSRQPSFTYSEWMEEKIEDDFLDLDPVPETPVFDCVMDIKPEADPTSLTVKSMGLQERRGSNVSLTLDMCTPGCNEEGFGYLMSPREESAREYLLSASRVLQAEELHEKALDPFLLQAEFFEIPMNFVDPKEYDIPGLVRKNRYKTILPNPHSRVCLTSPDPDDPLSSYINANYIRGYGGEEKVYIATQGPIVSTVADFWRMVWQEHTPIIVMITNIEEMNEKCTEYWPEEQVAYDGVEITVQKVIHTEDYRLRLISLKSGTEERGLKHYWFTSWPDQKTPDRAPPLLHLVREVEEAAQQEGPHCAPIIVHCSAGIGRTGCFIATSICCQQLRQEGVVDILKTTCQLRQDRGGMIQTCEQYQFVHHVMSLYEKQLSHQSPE
Assay: STEP46 biochemical assay (DiFMUP fluorescence phosphatase assay)
Settings: DiFMUP 10 μM, read-out: STEP IC50
Protocol: STEP46 Biochemical Assays
Serial dilutions of compounds were performed in 100% DMSO and 1 uL of compounds were dispensed into 384-well black polystyrene plates (Corning, NY). Compounds were incubated with 24 uL of buffer containing 50 mM Hepes, 1 mM DTT, 0.02% Brij35, 1 ng/well purified STEP46 enzyme for 30 min at room temperature. The reaction was initiated by addition of 25 uL of DiFMUP (6, 8-difluoro-4-methylumbelliferyl phosphate) (InVitrogen, CA) with a final concentration of 10 μM and incubated at 27° C. for 90 min. Final DMSO concentration is 2%. Plates were read with florescence intensity at excitation/emission of 360/460 nm using a PheraStar plate reader (BMG Labtech, NC).
Data were expressed as percentage (%) inhibition of enzyme activity. 0% inhibition is defined as the RFUs (relative fluorescence units) in the absence of compounds and 100% inhibition is defined as RFUs in the absence of STEP46 enzyme. IC50 values of compounds with inhibitory activity against STEP46 were determined by GraphPad Prism (version 4.03) using four parameter logistic equation. Some compounds act as activators. For compounds showing STEP46 enzymatic activation, data are represented as percentage of inhibition but with negative values at three representative concentrations (25, 50 and 100 uM).

| SMILES | IC50 [nM] |
| --- | --- |
| COc1cc(-c2ccc3nc(-c4cccnc4)nc(Nc4ccc(F)c(Cl)c4)c3c2)cc(C(F)(F)F)c1 [Compound 664] | 1000 to 10000 |
| CNc1nc(-c2cccnc2)nc2cc(-c3cccc(Cl)c3)ccc12 [Compound 1353] | 1000 to 10000 |
| CNc1nc(-c2cccnc2)nc2ccc(-c3cccc(F)c3F)c(C)c12 [Compound 1285] | > 10000 |
| COc1ccc2nc(-c3cccnc3)nc(Nc3ccc4c(C)cc(=O)[nH]c4c3)c2c1 [Compound 333] | < 1000 |
| COc1ccc(-c2ccc3c(Nc4ccc(F)c(Cl)c4)nc(-c4cccnc4)nc3c2)cc1 [Compound 680] | 1000 to 10000 |
| Fc1ccc(-c2ccc3c(Nc4ccc(F)c(Cl)c4)nc(-c4cccnc4)nc3c2)cc1F [Compound 674] | 1000 to 10000 |
| CN(C)c1nc(-c2cccnc2)nc2ccc(-c3ccc(F)cc3F)cc12 [Compound 1381] | 1000 to 10000 |
| CCCOCCOc1cccc(-c2ccc3nc(-c4cccnc4)nc(NC)c3c2)c1 [Compound 1497] | 1000 to 10000 |
| CCc1sc(Nc2nc(-c3cccnc3)nc3ccc(OC)cc23)nc1-c1ccccc1 [Compound 463] | 1000 to 10000 |
| COCCN(C)c1nc(-c2cccnc2)nc2ccc(-c3cccc(F)c3F)cc12 [Compound 1391] | > 10000 |
| COc1ncc(-c2ccc3nc(-c4cccnc4)nc(Nc4ccc(F)c(Cl)c4)c3c2)cn1 [Compound 666] | < 1000 |
| CCOC(=O)c1csc(Nc2nc(-c3cccnc3)nc3ccc(OC)cc23)n1 [Compound 474] | 1000 to 10000 |
| Cc1cccc(CNc2nc(-c3cccnc3)nc3cc(-c4cc(F)ccc4F)ccc23)n1 [Compound 1430] | 1000 to 10000 |
| Clc1cc(Cl)cc(Nc2nc(-c3cnccn3)nc3ccc(Cl)cc23)c1 [Compound 1161] | 1000 to 10000 |
| Fc1ccc(Nc2nc(-c3cccnc3)nc3ccc(-c4ccccc4F)cc23)cc1Cl [Compound 641] | < 1000 |
| CN(C)c1nc(-c2cccnc2)nc2ccc(-c3cccc(Cl)c3)cc12 [Compound 1333] | > 10000 |
| NC(=O)c1cccc(-c2ccc3c(Nc4ccc(F)c(Cl)c4)nc(-c4cccnc4)nc3c2)c1 [Compound 691] | < 1000 |

| SMILES | IC50 [nM] |
| --- | --- |
| COc1ccc2nc(-c3cccnc3)nc(Nc3nc(-c4ccc(Br)cc4)cs3)c2c1 [Compound 415] | 1000 to 10000 |
| Fc1ccc(Nc2nc(-c3cccnc3)nc3cc(-c4ccccc4)ccc23)cc1Cl [Compound 692] | < 1000 |
| COc1ccc2nc(-c3cccnc3)nc(Nc3nc(-c4c(F)cccc4F)cs3)c2c1 [Compound 459] | < 1000 |
| COc1ccc2nc(-c3cccnc3)nc(Nc3ccc4ccc(=O)[nH]c4c3C)c2c1 [Compound 343] | > 10000 |
| Cc1cccc(-c2ccc3nc(-c4cccnc4)nc(Nc4ccc(F)c(Cl)c4)c3c2)c1 [Compound 632] | < 1000 |
| COc1cncc(-c2ccc3nc(-c4cccnc4)nc(Nc4ccc5[nH]c(=O)sc5c4)c3c2)c1 [Compound 329] | < 1000 |
| CN(C)C(=O)COc1ccc2nc(-c3cccnc3)nc(Oc3ccc(Cl)c(Cl)c3)c2c1 [Compound 847] | < 1000 |
| COc1ccc(OC)c(-c2ccc3nc(-c4cccnc4)nc(Nc4ccc(F)c(Cl)c4)c3c2)c1 [Compound 645] | 1000 to 10000 |
| CNc1nc(-c2cccnc2)nc2cc(-c3ccc(C(C)=O)cc3)ccc12 [Compound 1351] | 1000 to 10000 |
| FC(F)Oc1cccc(Nc2nc(-c3ccnnc3)nc3ccccc23)c1 [Compound 1183] | 1000 to 10000 |
| Fc1ccc(-c2ccc3nc(-c4cccnc4)nc(Nc4ccc(F)c(Cl)c4)c3c2)cc1F [Compound 672] | 1000 to 10000 |
| CNc1nc(-c2cccnc2)nc2ccc(-c3cc(OC)ccc3OC)cc12 [Compound 1356] | 1000 to 10000 |
| CN(C)c1ccc2nc(-c3ccnnc3)nc(Nc3ccc(F)c(Cl)c3)c2c1 [Compound 1152] | 1000 to 10000 |
| COc1ncccc1-c1ccc2nc(-c3cccnc3)nc(Nc3ccc(F)c(Cl)c3)c2c1 [Compound 650] | < 1000 |
| COc1cc(OC)cc(-c2ccc3nc(-c4cccnc4)nc(Nc4ccc(F)c(Cl)c4)c3c2)c1 [Compound 642] | < 1000 |
| CNc1nc(-c2cccnc2)nc2cc(-c3cccc(C#N)c3)c(C)cc12 [Compound 1409] | 1000 to 10000 |
| Fc1ccc(Nc2nc(-c3cccnc3)nc3ccc(-c4ccncc4)cc23)cc1Cl [Compound 651] | < 1000 |
